The values that follow come from patent US10633448B2, “IGF-1R antibody-drug-conjugate and its use for the treatment of cancer” (PIERRE FABRE MEDICAMENT, priority 2014, dated 2020).

Experiment [1] concerns lysosome functions. The experiment can be described thus: Inhibition of Ab degradation with lysosome inhibitor. The class given is cell-based. The following applies: cells with 10 μg/ml Ab, 2 h at 37° C. Here is the method: In order to confirm that antibodies reached the lysosome were they are degraded, cells were treated or not with bafilomycine A1, a potent inhibitor of lysosome functions. Cells were then incubated with 10 μg/ml of Ab to be tested at 4° C., washed and incubated for 2 h at 37° C. The internalized Ab was detected after cell permeabilisation using a secondary anti-mouse IgG-Alexa 488 Ab.

Experiment [2] deals with MDA-MB-231 (breast adenocarcinoma) cells. The experiment can be described thus: ATPlite antiproliferative assay, MDA-MB-231. The class given is cell-based, human. The following applies: 72 h drug treatment. The method, then: A549 (Non Small Cell Lung Cancer—ATCC CCL-185) and MDA-MB-231 (breast adenocarcinoma—ATCC HTB-26) cells were cultured in Minimum Essential Medium Eagle (MEM) with 5% fetal calf serum (FCS) and Dulbecco's modified Eagle Medium (DMEM) with 10% FCS respectively. MCF7 (breast ductal carcinoma—ATCC HTB-22) and SN-12C (kidney carcinoma—ATCC) cells were maintained in RPMI1640 medium (without phenol red for MCF7 cells) containing 10% FCS. All the media were supplemented with fungizone (1.25 μg/mL) and penicillin-streptomycin (100 U/100 μg/mL). Cells were cultured under standard conditions in an incubator at 37° C., 5% CO2 and 95% atmospheric humidity.
Selected drugs were investigated for their antiproliferative activity using an ATPlite proliferation assay (Perkin Elmer, Villebon sur Yvette, France) on a comprehensive panel of 4 cell lines. […] On day 4, cell viability was evaluated by dosing the ATP released by viable cells. The number of viable cells was analyzed in comparison with the number of solvent treated cells. The EC50 values were determined with curve fitting analysis (non linear regression model with a sigmoidal dose response, variable hill slope coefficient), performed with the algorithm provided by the GraphPad Software (GraphPad Software Inc., CA, USA).
On the technique in general: In ATP-based viability assays light output follows the ATP content of the culture.

`CO/C1=C\C(C)=C\[C@@H](C)[C@@H](O)[C@@H](C)C/C(C)=C/C=C/[C@H](OC)[C@@H]([C@@H](C)[C@@H](O)[C@H](C)[C@@]2(O)C[C@@H](O)[C@H](C)[C@@H](C(C)C)O2)OC1=O` [bafilomycine A1]: the “degradation of intracellular Ab” value in experiment [1] is reported as “prevented the degradation of intracellular Ab”. The term EC50 denotes the concentration needed to bring the measured effect to its halfway point. High values mean a less potent agent, low ones a more potent agent. Regarding “methyl (S)-2-((2R,3R)-3-((S)-1-((3R,4S,5S)-4-((S)-2-((S)-2-((3-aminobenzyl)(methyl)amino)-3-methylbutanamido)-N,3-dimethylbutanamido)-3-methoxy-5-methylheptanoyl)pyrrolidin-2-yl)-3-methoxy-2-methylpropanamido)-3-phenylpropanoate, trifluoroacetic acid [Compound 15]”, in experiment [2], a half-maximal response (EC50) required 170 pM. That is a sub-nanomolar value.
